Patent EP4623928A1, “GLP-1R ANTAGONISTS FOR THE TREATMENT OF CANCER” (Fiorina, Paolo, priority 2024, dated 2025)

Key:
[1] = system: mitogen-stimulated murine splenocytes; assay: IFN-γ ELISpot assay on anti-CD3/anti-CD28 stimulated splenocytes; format: cell-based, C57BL/6 mice; settings: Exe-4 at 0.1, 1 or 10 nM, soluble anti-CD3 and anti-CD28, 24 hours
Method: An ELISPOT assay was used to measure the number of IFN-γ-producing cells according to the manufacturer's protocol (BD Biosciences) as previously performed by our group (39). To test the role of GLP-1R-driven immunity on the anti-CD3/28 non-autoimmune specific response, 1×10^6 splenocytes isolated from C57BL/6 mice were cultured in a microwell plate (BD Biosciences) coated with IFN-y capture antibody (Ab) in the presence of the following soluble anti-CD3 and anti-CD28 at 0,5ug/ml for 24 hours. Exe-4 and/or Exe-4+Exe-9-39 at concentrations of 0.1, 1 or 10 nM were added to the culture. After 24 hours, bound secondary Ab was visualized using HRP-streptavidin and the AEC substrate kit (BD Biosciences). Spots were counted using an Immunospot analyzer (Cellular Technology Ltd., Cleveland, OH) and expressed as the number of cytokine-producing spots per 1×10^6 cells. After 24hours, ELISpot plates were developed and acquired on an ELISpot reader, as previously described.

[2] = system: GLP-1R^pos and GLP-1R^neg CD3^+ T cells; assay: Transwell migration assay toward SDF-1, GLP-1Rpos and GLP-1Rneg CD3+ T cells; format: cell-based, C57BL/6 mice; settings: GLP-1R^neg CD3^+ T cells only, Exe-4 (1 nM), SDF-1 gradient
Method: Transwell migration assays were performed on GLP-1R^pos and GLP-1R^neg CD3^+ cells or respectively untransduced-mock CD3^+ T cells or pmY-GLP-1R transduced CD3^+ T cells, freshly isolated or activated with anti-CD3/CD28 (0.5 µg /ml each) in the presence or not of Exe-4 (1 nM). Chemotaxis assessments via transwell migration assay were performed using polycarbonate membranes with 5 µm pores (Corning) in accordance with the manufacturer's instructions and as previously published (42). Cells were washed, re-suspended in migration media (RPMI), and added to the upper chamber of the plate, while migration media containing 0 or 50 ng/mL SDF-1 (R&D Systems) was added to the bottom chamber. Treated cells were incubated over night at 37°C to migrate through the polycarbonate membrane into the bottom chamber. Input cell counts were obtained by flow cytometry with a BD FACSCelesta (BD, Biosciences) as well as cell counts of migrated cells in the lower chambers. Migration percentage was calculated as the number of cells in the lower chamber (migrated) compared to total input cell count for three separate wells. Mean migration percentages and standard deviations (SD) were calculated across the different donor cell lots. Analysis of lower chambers without SDF-1 (negative gradients) was used to control for any nonspecific increase in chemotaxis.

effector T cells = assay: Effector T cell suppression by iTregs generated with Exe-4 (CTV dilution); format: cell-based; settings: iTregs generated in the presence of Exe-4, ratio of 1: 4 to effector T cells, vs untreated-iTregs
CD3^+ T cells = assay: Phosphoproteomic array of CD3+ T cells; format: cell-based, murine; settings: Exe-4 (1 nM), 24 hours, vs untreated
Method: Isolated CD3^+ T cells from splenocytes were treated with Exendin-4 (Exe-4) for 24hrs or left untreated. Total soluble proteins from both cell extracts, approximately 7×10^6 cells per conditions were used, all steps were performed using the Phospho Explorer Antibody Array kit (Full Moon Biosystems, PEX100) as recommended by the manufacturer (41). Next, soluble extracted proteins were biotinylated and were next incubated with a mixture of Cy3-streptavidin-detection buffer and the array slides were incubated on a rotating shaker for 30 min at RT. After, several washing steps, the array slides were allowed to dry by centrifugation. Dry array slides were analyzed by a slide-based microarray scanner as recommended by the manufacturer.

Cardiac allografts = assay: Murine cardiac allotransplantation (BALB/c hearts into C57BL/6 mice); format: in vivo
Method: Cardiac allografts from BALB/c mice were transplanted intra-abdominally in C57BL/6 mice using microsurgical techniques as described (31). Rejection was determined as complete cessation of cardiac contractility and was confirmed by direct visualization. Transplanted mice were intraperitoneally injected according to the following protocols: 1) Exendin-4 (Exe-4) (Amylin Pharmaceuticals, San Diego, CA - USA) 0.2pg twice/day for two weeks after transplant; 2) Exe-4 0.2pg twice/day from the day before until two weeks after transplant; 3) Exe-4 2µg twice/day from the day before until two weeks after transplant; 4) Exe-4 2µg twice/day + Exendin-9-39 (Exe-9) (Sigma-Aldrich) 2µg twice/day from the day before until two weeks after transplant; 5) Exe-4 2µg twice/day from the day before until two weeks after transplant + Rapamycin 0.1mg/die for two weeks; 6) saline 0.5ml twice/day for two weeks.

## Exendin-4 [Exe-4]
[1]
  number of IFN-y producing cells: significantly reduced
[2]
  migratory potential: reduced
Effector T cells
  suppression of effector T cells by iTregs: significantly reduced suppression
CD3^+ T cells
  expression and activation of signalling molecules (phosphoproteomic arrays): altered the expression and the activation of several signalling molecules
Cardiac allografts; day-7 heart allograft, Exe-4-treated mice
  graft infiltration (Hematoxylin and eosin staining): decrease of graft infiltration
Cardiac allografts; first of three Exe-4 regimens listed 'respectively' (low or high dose, preceded or not with pre-treatment), untreated [MST]=7 days, p<0.01
  [MST] (cardiac allograft survival): 9 days
Cardiac allografts; second of three Exe-4 regimens listed 'respectively', p<0.01 vs untreated
  [MST] (cardiac allograft survival): 10 days
Cardiac allografts; splenic, Exe-4-treated mice
  CD4^+ and CD8^+ effector T cells: significant decrease
  Tregs: no effect
Cardiac allografts; third of three Exe-4 regimens listed 'respectively', p<0.01 vs untreated
  [MST] (cardiac allograft survival): 10 days
